Some test systems named below: HOP-18; LXFL 529; XF498; SNB-78; DMS-114; M19-MEL; RXF 631; MDA-N; BT-549.
Holding throughout (experiment): NCI anticancer screen, dose series, 48 h

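All cell lines were grown in 96-well plates and treated with compound for 48 hours. At the GI50, growth is halved.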 Activity calls are given as the source filed them. Cut-off read from the data, not from the text of the source: active = GI50 up to about 1.1 µM and inactive = higher.

As to `CCN(CC)Cc1cc(Nc2c3ccccc3nc3c4ccccc4n(C)c23)ccc1O`, the GI50 in the experiment on HOP-18 is 14.1 µM (inactive); in the experiment on LXFL 529 it was 4.8 µM (inactive); in the experiment with XF498 it was 4.84 µM (inactive); in the experiment on SNB-78 it was 18.6 µM (inactive); with DMS-114, 6.37 µM (inactive); in the experiment on M19-MEL, 7.85 µM (inactive). In the experiment with RXF 631, the GI50 was 3.18 µM (inactive).
As to `CCCCCCCCCCCCCCCCCCOCC1(COP(=O)([O-])OCC[N+](C)(C)C)CCCO1` (stereo not drawn), the GI50 was 2.82 µM (inactive) with HOP-18; 4.92 µM (inactive) in the experiment on LXFL 529; 7.64 µM (inactive) with XF498; 8.17 µM (inactive) with SNB-78; 5.16 µM (inactive) in the experiment with DMS-114; 2.99 µM (inactive) in the experiment on M19-MEL.
`NC(=O)COC(=O)c1c(Cl)nc2sccn12`: the GI50 was > 100 µM (inactive) with HOP-18; > 65.5 µM (inactive) with LXFL 529; > 100 µM (inactive) in the experiment on XF498; > 100 µM (inactive) with SNB-78; > 52.1 µM (inactive) with DMS-114; > 84.3 µM (inactive) in the experiment on M19-MEL. The GI50 with RXF 631 was > 100 µM (inactive).
For `O=C1NC2C(O)CCCCC2C12CCCCC2` (stereo not drawn), the GI50 in the experiment on HOP-18, in the experiment with LXFL 529, in the experiment on XF498, with SNB-78, in the experiment on DMS-114 and in the experiment on M19-MEL was > 100 µM (inactive) throughout. Moreover, the GI50 with RXF 631 was > 100 µM (inactive).
As for `CN1C[C@@H]2CC(=O)CC[C@@H]2C[C@H]1C#N`, the GI50 in the experiment on LXFL 529, in the experiment on XF498, in the experiment on DMS-114 and in the experiment with RXF 631 was > 100 µM (inactive) each time.
Turning to `Cc1cc2c(=O)cc(-c3ccc(C(=O)O)cc3)oc2c(C(=O)O)c1C`, the GI50 with HOP-18, in the experiment on LXFL 529, in the experiment with SNB-78, with DMS-114, in the experiment with M19-MEL and in the experiment with RXF 631 was > 100 µM (inactive) each time.
`COc1ccc(Br)c(N/N=C2\CCCNC2=O)c1`: the GI50 with HOP-18 was 39.6 µM (inactive); in the experiment on LXFL 529 it was > 100 µM (inactive); in the experiment on XF498, 69.2 µM (inactive); with SNB-78, > 100 µM (inactive); with DMS-114, 90.8 µM (inactive); in the experiment with M19-MEL, > 100 µM (inactive). In addition, the GI50 with RXF 631 was > 100 µM (inactive).
Regarding `C[C@]12CCC[C@H](O)[C@H]1C[C@H](CO)CC2`, the GI50 in the experiment on HOP-18, in the experiment with LXFL 529, with XF498, in the experiment on M19-MEL and in the experiment with RXF 631 was > 100 µM (inactive) each time.
For `COC1C(O)C(C)OC(OC2C(Oc3cccc4c(O)c5c(=O)oc6ccc(C)c7c(=O)oc(c34)c5c67)OC(C)C3O[C@H](c4ccccc4)OC32)C1O` (stereo partly drawn), the GI50 was 1.05 µM (active) in the experiment on HOP-18; 0.372 µM (active) with MDA-N; 0.0678 µM (active) with LXFL 529; 0.875 µM (active) in the experiment with SNB-78; 0.288 µM (active) in the experiment with DMS-114; 0.156 µM (active) with M19-MEL. Also, in the experiment on RXF 631, the GI50 was 0.0314 µM (active).
Take `COc1ccc(OC)c2c(C(=O)O)c(C(C)c3ccccc3)ccc12` (stereo not drawn): the GI50 in the experiment on HOP-18, in the experiment with LXFL 529, in the experiment with M19-MEL and in the experiment with RXF 631 was > 100 µM (inactive) each time.
In the case of `COC1C(N)C(OC2C(Oc3cccc4c(O)c5c(=O)oc6ccc(C)c7c(=O)oc(c34)c5c67)OC(C)C(O)C2(C)O)OC(C)C1O` (stereo not drawn), the GI50 in the experiment on HOP-18 is 0.152 µM (active); in the experiment with MDA-N, 0.0743 µM (active); in the experiment with LXFL 529, < 0.0121 µM (active); in the experiment with XF498, < 0.0116 µM (active); with SNB-78, 0.0394 µM (active); in the experiment on BT-549 it was 0.0192 µM (active). For the same compound, the GI50 was 0.0229 µM (active) with DMS-114, 0.0166 µM (active) in the experiment on M19-MEL and 0.0351 µM (active) in the experiment on RXF 631.
As to `CC1(C)SCc2nc3ncccc3n21`, the GI50 in the experiment with LXFL 529, in the experiment with XF498, in the experiment with SNB-78, with DMS-114, with M19-MEL and in the experiment on RXF 631 was > 100 µM (inactive) throughout.
As for `COc1ccc2oc3cccc(NCCN(C)C)c3c(=O)c2c1`, the GI50 in the experiment with HOP-18 is 11.6 µM (inactive); in the experiment on LXFL 529, 13.1 µM (inactive); in the experiment with XF498, 14.5 µM (inactive); in the experiment on SNB-78 it was 17.7 µM (inactive); in the experiment on DMS-114, 12.9 µM (inactive); with M19-MEL, 15.3 µM (inactive). For the same compound, in the experiment with RXF 631, the GI50 is 13.7 µM (inactive).
Consider `COC(=O)C(C(=O)C(=O)Nc1ccc(Br)cc1)c1nc2ccc(Cl)cc2nc1O` (stereo not drawn), for which the GI50 with HOP-18 was > 100 µM (inactive); in the experiment on LXFL 529, > 100 µM (inactive); with XF498, > 100 µM (inactive); in the experiment on SNB-78, > 100 µM (inactive); with DMS-114 it was > 80 µM (inactive); with M19-MEL, > 100 µM (inactive). Moreover, the GI50 in the experiment with RXF 631 is > 100 µM (inactive).
Consider `CCN(CC)CCNc1ccc2nc(C)n3c4ccc(O)cc4c(=O)c1c23`, for which the GI50 in the experiment with LXFL 529 is 0.78 µM (active); in the experiment with DMS-114 it was 1.42 µM (inactive); in the experiment on M19-MEL, 3.49 µM (inactive); in the experiment with RXF 631, 0.331 µM (active).
Consider `CC(C)(Oc1ccc(C(=O)c2ccc(Cl)cc2)cc1Cl)C(=O)N1CCN(c2ccccc2)CC1`, for which the GI50 in the experiment on HOP-18 was > 100 µM (inactive); with LXFL 529 it was > 100 µM (inactive); in the experiment on XF498, 52.1 µM (inactive); in the experiment on SNB-78 it was > 100 µM (inactive); with DMS-114, 45.7 µM (inactive); in the experiment on M19-MEL it was > 100 µM (inactive).
Consider `OCCCCCCOc1ccc(-c2cc(-c3ccccn3)nc(-c3ccccn3)c2)cc1`, for which the GI50 in the experiment on HOP-18 is 0.182 µM (active); with MDA-N, 0.526 µM (active); in the experiment with LXFL 529 it was 0.242 µM (active); in the experiment on XF498 it was 1.51 µM (inactive); in the experiment on SNB-78, 0.524 µM (active); in the experiment on BT-549, 0.149 µM (active). Further, the values for the GI50 with DMS-114 and in the experiment on M19-MEL were 0.207 µM (active) and 0.253 µM (active), respectively.
Take `CC(C)(C)C1=CC(=NNC(=S)NCc2ccccc2)C=C(C(C)(C)C)C1=O`: the GI50 with LXFL 529 is 63.1 µM (inactive); in the experiment on XF498 it was > 100 µM (inactive); in the experiment on DMS-114, 54.8 µM (inactive); with M19-MEL it was 98.4 µM (inactive); in the experiment on RXF 631, > 100 µM (inactive).
For `Cn1c(=O)nc2n(-c3ccc(Cl)cc3)c3cc(Cl)ccc3nc-2c1=O`, the GI50 with HOP-18 is 14.9 µM (inactive); with MDA-N it was 1.48 µM (inactive); in the experiment on LXFL 529 it was 1.7 µM (inactive); with XF498, 1.41 µM (inactive); in the experiment on SNB-78 it was > 37.9 µM (inactive); with BT-549 it was 4.12 µM (inactive). Moreover, the figures for the GI50 in the experiment on DMS-114, in the experiment on M19-MEL and in the experiment on RXF 631 were 1.78 µM (inactive), 1.75 µM (inactive) and 1.97 µM (inactive), respectively.
As to `CCOC(OCC)C(CC)[Se]c1ccccc1` (stereo not drawn), the GI50 with HOP-18 is 65.2 µM (inactive); in the experiment with LXFL 529, 35.6 µM (inactive); in the experiment on XF498 it was > 100 µM (inactive); in the experiment with SNB-78, 64.3 µM (inactive); in the experiment on DMS-114, 2.82 µM (inactive); in the experiment with M19-MEL it was 19.3 µM (inactive). Besides, in the experiment with RXF 631, the GI50 is 8.49 µM (inactive).
With `CC(C)c1cccc(C(C)C)c1NC(=O)/C(Cc1nc2ccc(Cl)cc2nc1O)=N\NC(=O)C[N+](C)(C)C`, the GI50 with DMS-114, in the experiment on M19-MEL and with RXF 631 was > 100 µM (inactive) in each case.
Turning to `CC(N)C(=O)OCN1C(=O)C2C3C=CC(C2C1=O)C1C2C(=O)N(COC(=O)C(C)N)C(=O)C2C31` (stereo not drawn), the GI50 with HOP-18 is > 100 µM (inactive); in the experiment on LXFL 529, 26.4 µM (inactive); in the experiment with XF498, 19 µM (inactive); in the experiment with SNB-78 it was 57 µM (inactive); in the experiment with DMS-114, 17 µM (inactive); in the experiment with M19-MEL, 23.6 µM (inactive).
Take `O=C1CCC2(c3ccccc3)Nc3ccccc3N12` (stereo not drawn): the GI50 in the experiment with LXFL 529, with XF498, in the experiment with SNB-78, in the experiment on DMS-114, in the experiment on M19-MEL and with RXF 631 was > 100 µM (inactive) in each case.

(Values after ChEMBL document CHEMBL1201862, “PubChem BioAssay data set” (2004).)
